Test results as given in patent publication US4764461A, “Tellurium and selenium compounds for the induction of in vivo and in vitro production of cytokines” (priority 1987, dated 1988).
“And” between values parts separate entries of the source, which are not always exact repeats. Equal entries are not always repeated. “Also recorded” adds a separate entry of the source.

Experiments:
West Nile virus (WNV) [1] = assay: West Nile virus infection in mice (Example 22); type: in vivo, ICR mice
Description: The effect of the compound of Example 1 on an infection with West Nile virus (WNV) was determined. WNV is a toga virus of the flavivirus group, a positive single stranded RNA virus, which when injected IP to mice usually kills them within 5-8 days as a result of extensive damage to the central nervous system. For this study ICR mice (3 wks of age) were injected IP with the virus at the concentration of 10^3 or 10^4 LD 50 units/mouse. Injections of 10 μg/0.2 ml PBS/mouse of the compound of Ex. 1 were given on day -1 (one day prior to injection of virus) and 6 days after injection of virus.
In a second experiment, mice were injected with 10^3 IPLD50 virus and received injections of the compound of Example 1 (1 μg/0.2 ml PBS/mouse) on days -1, 1, 2 and 4.

mice = assay: Preliminary toxicity studies in mice; type: in vivo; settings: 6 week old mice
Description: The compounds may be used as anti-bacterial or anti-viral agents in plants or in animals. Virus infections such as West Nile virus infections in mice are susceptible to the compound of the Example 1 at a dose of 10 μg/day/mouse. Plant bacterial infections such as crown gall caused by Agrobacterium tumefaciens may be treated or prevented by the application of a 0.1% solution of compounds of the invention.

[2] = test system: IL-2; human mononuclear cells; assay: IL-2 production by human mononuclear cells of normal donors and systemic lupus patients, with or without PHA (Example 20); type: cell-based
Description: Using the procedure of Example 4, human mononuclear cells were tested for their ability to produce IL-2 after induction with PHA or in unstimulated cells from normal donors and from patients suffering from systemic lupus erthyrematous. The IL-2 content was tested according to the procedure of Example 3 using the CTLD IL-2 dependent cell line.
*Dilution of 1 part of 0.2 ml of PBS containing 5 μg of compound of Ex
**CPM × 10^-3 of ^3 H Thymidine of 5 × 10^4 CTLD
cells in presence of 1:2 dilution of the supernatants as in Ex. 3. PG,4

IL-2 = assay: Oral administration: induction of lymphokines, IL-2 content of spleen cell supernatants (Example 13); type: in vivo, Balb-C mice; settings: for IL-2, percent increase as compared to control: 4 days
Description: The water solution was prepared by dissolving the compounds in PBS at a concentration of 50 μg/ml PBS and diluting the resulting solution to the desired concentration. The compounds were administered over a 4 day period. The exact amount of liquid intake was recorded daily. […] The cells were incubated at a concentration of 10^7 cells/ml in enriched RPMI containing 2 μg/ml of con-A for 24 hours at 37° C. The supernatants were collected and tested for IL-2 content.
After 24 hours the mice were sacrificed and the spleens were processed as described above.

fibrosarcoma cells = assay: Survival of mice with methylcholanthrene-induced fibrosarcoma cells (Example 6); type: in vivo, Balb-c mice; settings: until just after the increased dosage regimen (day 39)
Description: Balb-c mice, age 7 weeks were injected with methylcholanthrene to induce the formation of fibrosarcoma cells according to the procedure of Example 5. The test animals were divided into two groups.
(a) control (0.2 IP of 40% DMSO and 60% PBS)

West Nile virus (WNV) [3] = assay: WNV yield in mouse macrophage cultures (Example 23); type: cell-based, WNV in ICR mouse macrophages; settings: for Virus Yield (PFU/ml): virus alone 2 × 10^4 /ml
Description: Varying amounts of the compound of Example 1 (5 μg, 1 μg, 0.1 μg) were incubated with a monolayer of mouse macrophages for 24 h. […] All cultures were then infected with 10^4 PFU/plate. After 72 h incubation the supernatants were collected and the virus was titrated against Vera cells.

[4] = test system: IL-2; human mononuclear cells; assay: IL-2 activity of human mononuclear cell supernatants on CTLD cells (Example 8); type: cell-based; settings: control CTLD cells 3,500
Description: Human mononuclear cells were obtained as described above and cultured for 72 hours at a concentration of 10^6 cells/ml enriched RPMI, in the presence of varying concentrations of the compound of Example 1. Culture supernatants were collected, centrifuged and tested for IL-2 activity by using 50% of the volume of the supernatant assaying their ability to support the proliferation of the IL-2 dependent cell line CTLD.

CSF; mouse spleen cells = assay: In vitro induction of colony stimulating factor (CSF) from mouse spleen cells (Example 7); type: cell-based, Balb-c mice; settings: baseline 70-80 colonies/dish
Description: (§1) This example describes the in vitro making of IL-2 and CSF from mouse spleen cells using the compound of Example 1 as the extrinsic stimulating agent.
(§2) Spleens were removed from 15, male Balb-c mice 6 to 8 weeks of age. The spleen cells were pushed through stainless steel 60 mesh (U.S. standard) nets resting in […] Petri dishes containing PBS in order to separate the cells. The cells were then collected into centrifuge tubes and spun at 1000 rpm for 10 minutes. The supernatant was discarded and cells were treated with 5 ml of hypotonic buffer (0.15MNH4 Cl; 0.01M KHCO3 dissolved in double distilled water, pH 7.2) for exactly two minutes. Thereafter, PBS was added to the cells and the test tubes were centrifuged for 10 minutes at 1000 rpm. The cells were rinsed twice and counted in a heamocytometer using trypan blue to test for viability. The cells were brought to a concentration of 10^7 viable cells/ml. The cells were contacted with varying amounts of the compound of Example 1 in 1 ml of 40% DMSO 60% PBS.

IL-2; mouse spleen cells = assay: In vitro induction of IL-2 from mouse spleen cells (Example 7); type: cell-based, Balb-c mice; settings: baseline 4,000-5,000 CPM
Description: as §1, §2

IL-2; spleen cells = assay: In vitro IL-2 secretion of mouse spleen cells, CTLD assay (Example 17); type: cell-based, Balb/c mice; settings: IL-2 activity, 24 h; for Spleen Cells (cpm): control 2,550
Description: The compounds listed below were tested in vitro at various concentrations that ranged from 10 μg/ml cells to 1×10^-6 μg/ml of cell mixtures. Cells were obtained from spleens of male Balb/c mice 6-8 weeks of age. Spleens were pushed through a stainless steel 60 mesh strainer to separate cells.

[5] = test system: IL-2 receptors of human mononuclear cells; assay: Induction of IL-2 receptors of human mononuclear cells, proliferation by 3HT uptake (Example 18); type: cell-based
Description: Human MNC were brought to a concentration of 10^6 cells/ml. RPMI+10% FCS. Aliquots of 0.2 ml. were placed in duplicate wells of microdishes and plates were incubated at 37 C for 24 hrs. […] Plates were further incubated for 48 hrs. and labelled with 3H thymidine 24 hrs. before harvesting.
The proliferation was measured by ^3 HT uptake as described by Gillis et al, J. Immunol. […] The results are expressed in counts per minute.

[6] = test system: IL-2 receptors; human mononuclear cells; assay: Detection of IL-2 receptor sites with fluoresceinated antibody (Example 21); type: cell-based; settings: 1 μg/ml, 24 h; control 2%
Description: This example provides an assay to detect the presence of receptor sites for IL-2. […] The cells were washed twice with PBS and then incubated with a specific fluoresceinated antibody against IL-2 receptors as described in Uchiyama et al, J. Immunol.

human mononuclear cells = assay: Proliferation of human mononuclear cells (Example 19); type: cell-based; settings: at any concentration that was tested
Description: Human mononuclear cells were obtained by layering heparinized blood over a Ficoll/Hypaque gradient. The mononuclear cells were resuspended in enriched RPMI, rinsed three times and brought to a concentrations of 5×10^5 cells/ml encriched RPMI. […] Aliquots of 0.2 ml of each sample were placed in wells of microplates (triplicates). Microplates were incubated for 72 hours at 37° C. after which they were labelled with H^3 methyl-thymidine 1 uCi/well for an additional 24 hours. Cells were then harvested with a cell harvester.

Cl[TeH]1(Cl)(Cl)OCCO1 [Example 1]
West Nile virus infections in mice (West Nile virus (WNV) [1]; 10 μg/day/mouse): susceptible | animals remained alive after 8 days (West Nile virus (WNV) [1]; 10^3 or 10^4 LD50 virus, 10 μg/mouse): three out of five | # Alive/Total Animals (West Nile virus (WNV) [1]; Table A, no virus (0), compound alone): 6/6 | further survival of the remaining three mice (West Nile virus (WNV) [1]; second experiment, after day 8): Two out of the remaining three survived an additional 8 days; also recorded: the third remained alive without any manifestations of clinical symptoms | # Alive/Total (West Nile virus (WNV) [1]; second experiment, day 8, 10^3 IPLD50 virus, 1 μg/mouse on days -1, 1, 2 and 4, virus alone 0/8): 3 out of 5 and 3/5 | # Alive/Total (West Nile virus (WNV) [1]; second experiment, day 8, compound alone, no virus): 5/5 | LD50 (mice): 300 ug./25 g of body weight | IL-2 production, CPM × 10^-3 of 3H thymidine ([2]; SLE, PHA +, 5 μg 0.2 ml PBS): 6.3 CPM × 10^-3 and 8.2 CPM × 10^-3 and 4.1 CPM × 10^-3 | IL-2 production, CPM × 10^-3 of 3H thymidine ([2]; SLE, PHA +, 1:100 PBS): 24.0 CPM × 10^-3 | IL-2 production, CPM × 10^-3 of 3H thymidine ([2]; SLE, PHA -, 5 μg 0.2 ml PBS): 2.0 CPM × 10^-3 and 2.4 CPM × 10^-3 | IL-2 production, CPM × 10^-3 of 3H thymidine ([2]; normal, PHA -, 5 μg 0.2 ml PBS): 2.3 CPM × 10^-3 and 2.1 CPM × 10^-3 | IL-2, percent increase as compared to control (IL-2; 1 μg/ml drinking water): 50% | inducing lymphokine production (IL-2; given in dry form or when hydrolyzed in an aqueous diluent): active for inducing lymphokine production | mortality results for group (b) (fibrosarcoma cells): 0% | reduction in virus yield (West Nile virus (WNV) [3]; 0.1 μg): ten | Virus Yield (PFU/ml) (West Nile virus (WNV) [3]; 0.1 μg/plate): 2 × 10^3 PFU/ml | Virus Yield (PFU/ml) (West Nile virus (WNV) [3]; 1 μg/plate): 5 × 10^2 PFU/ml | IL-2 activity, Counts per minute ([4]; 1 ng): 11,000 Counts per minute | IL-2 activity, Counts per minute ([4]; 10 ng): 1,500 Counts per minute | IL-2 activity, Counts per minute ([4]; 1 μg): 250 Counts per minute | IL-2 activity, Counts per minute ([4]; 100 μg): 280 Counts per minute | CSF (colonies/dish) (CSF; mouse spleen cells; 5 pg): 140 colonies/dish | CSF (colonies/dish) (CSF; mouse spleen cells; 50 pg): 260 colonies/dish | CSF (colonies/dish) (CSF; mouse spleen cells; 5 ng): 120 colonies/dish | CSF (colonies/dish) (CSF; mouse spleen cells; 50 ng): 75 colonies/dish | CSF (colonies/dish) (CSF; mouse spleen cells; 500 ng): 25 colonies/dish | CSF (colonies/dish) (CSF; mouse spleen cells; 5 μg): 5 colonies/dish | CSF (colonies/dish) (CSF; mouse spleen cells; 50 μg): 2 colonies/dish | IL-2 (cpm) (IL-2; mouse spleen cells; 5 pg): 12,000 cpm | IL-2 (cpm) (IL-2; mouse spleen cells; 50 pg): 38,000 cpm | IL-2 (cpm) (IL-2; mouse spleen cells; 500 pg): 30,000 cpm | IL-2 (cpm) (IL-2; mouse spleen cells; 5 ng): 15,000 cpm | IL-2 (cpm) (IL-2; mouse spleen cells; 50 ng): 6,000 cpm | IL-2 (cpm) (IL-2; mouse spleen cells; 500 ng): 5,000 cpm | IL-2 (cpm) (IL-2; mouse spleen cells; 5 μg): 5,000 cpm | IL-2 (cpm) (IL-2; mouse spleen cells; 50 μg): 5,000 cpm

Cl[Te]1(Cl)OCCO1 [Example 2]
IL-2, percent increase as compared to control (IL-2; 1 μg/ml drinking water): 30% | IL-2, percent increase as compared to control (IL-2; 25 μg/ml drinking water): 35% | Spleen Cells (cpm) (IL-2; spleen cells): 18,000 cpm

CC(=O)O[Te](OC(C)=O)(c1ccccc1)c1ccccc1 [Ph2 Te(OCOCH3)2]
Spleen Cells (cpm) (IL-2; spleen cells): 3,500 cpm

O=C(O[Te](OC(=O)c1ccccc1)(c1ccccc1)c1ccccc1)c1ccccc1 [Ph2 Te(OCOPh)2]
Spleen Cells (cpm) (IL-2; spleen cells): 4,300 cpm

Cl[Te](Cl)(c1ccccc1)c1ccccc1 [Ph2 TeCl2]
Spleen Cells (cpm) (IL-2; spleen cells): 2,300 cpm

Cl[Te](Cl)(Cl)c1ccccc1 [PhTeCl3]
Spleen Cells (cpm) (IL-2; spleen cells): 18,000 cpm

O=[Te]=O [TeO2, Tellurium dioxide]
Spleen Cells (cpm) (IL-2; spleen cells): 17,055 cpm | Spleen Cells, percent increase (IL-2; spleen cells; control 2,550 cpm): 508% | proliferation (3HT uptake), counts per minute ([5]; Test A, 1 μg/ml, control 2338): 1563 counts per minute | proliferation (3HT uptake), counts per minute ([5]; Test A, 1 × 10^-2 μg/ml, control 2338): 3108 counts per minute | proliferation (3HT uptake), counts per minute ([5]; Test A, 1 × 10^-3 μg/ml, control 2338): 2867 counts per minute | proliferation (3HT uptake), counts per minute ([5]; Test A, 1 × 10^-4 μg/ml, control 2338): 5540 counts per minute | proliferation (3HT uptake), counts per minute ([5]; Test A, 1 × 10^-5 μg/ml, control 2338): 3442 counts per minute | proliferation (3HT uptake), counts per minute ([5]; Test A, 5 × 10^-1 μg/ml, control 2338): 4667 counts per minute | proliferation (3HT uptake), counts per minute ([5]; Test A, 5 × 10^-2 μg/ml, control 2338): 2515 counts per minute | proliferation (3HT uptake), counts per minute ([5]; Test A, 7 × 10^-1 μg/ml, control 2338): 2475 counts per minute | proliferation (3HT uptake), counts per minute ([5]; Test B, 1 μg/ml, control 5573): 3275 counts per minute | proliferation (3HT uptake), counts per minute ([5]; Test B, 1 × 10^-2 μg/ml, control 5573): 3077 counts per minute | proliferation (3HT uptake), counts per minute ([5]; Test B, 1 × 10^-3 μg/ml, control 5573): 3800 counts per minute | proliferation (3HT uptake), counts per minute ([5]; Test B, 1 × 10^-4 μg/ml, control 5573): 2925 counts per minute | proliferation (3HT uptake), counts per minute ([5]; Test B, 1 × 10^-5 μg/ml, control 5573): 3645 counts per minute | proliferation (3HT uptake), counts per minute ([5]; Test B, 5 × 10^-1 μg/ml, control 5573): 5405 counts per minute | proliferation (3HT uptake), counts per minute ([5]; Test B, 5 × 10^-2 μg/ml, control 5573): 4280 counts per minute | proliferation (3HT uptake), counts per minute ([5]; Test B, 7 × 10^-1 μg/ml, control 5573): 4302 counts per minute | cells positive for IL-2 receptors [6]: 5% | effect on proliferation (human mononuclear cells): No significant effect

Ph2 TeCl
Spleen Cells (cpm) (IL-2; spleen cells): 2,100 cpm
